The text below walks through data of patent US11873299B1, “7-(4-((5-(4-chlorobenzylideneamino)-2-thioxo-1,3,4-thiadiazol-3(2H)-yl)methyl)iperazin-1-yl)-1-cyclopropyl-6-fluoro-4-oxo-1,4-dihydroquinoline-3-carboxylic acid as an anti-inflammatory compound” (KING FAISAL UNIVERSITY, priority 2023, dated 2024).

The target in series [1] is Bovine Serum Albumin (BSA) (Bos taurus, UniProt P02769). Description: Bovine Serum Albumin Assay (BSA), inhibition of protein denaturation. Particulars: dilutions of 20, 40, 60, 80, and 100 μg/mL; 0.4% w/v BSA, pH 6.4; 72° C. for 10 minutes; turbidity at 660 nm. Format: biochemical. How it is done: Bovine Serum Albumin Assay (BSA)
In vitro-inflammatory activities of the tested samples were determined using a modified method of the BSA assay reported by Williams et al. BSA solution (0.4%, w/v) was prepared in Tris Buffered Saline. The pH was adjusted to 6.4 with glacial acetic acid. Different dilutions of 20, 40, 60, 80, and 100 μg/mL of 7-(4-((5-(4-chlorobenzylideneamino)-2-thioxo-1,3,4-thiadiazol-3(2H)-yl)methyl)piperazin-1-yl)-1-cyclopropyl-6-fluoro-4-oxo-1,4-dihydroquinoline-3-carboxylic acid (IV) the stock solutions were added to test tubes containing 1 mL of 0.4%, w/v BSA buffer solution. Both negative (solvent) and positive (aspirin) controls were assayed in a similar manner. The solutions were then heated in a water bath at 72° C. for 10 minutes, and cooled for 20 minutes under laboratory conditions. The turbidity of the solutions (level of protein precipitation) was measured at 660 nm in Spectrophotometer (V-770 UV-Visible/NIR Spectrophotometer). The percentage inhibition of precipitation (protein denaturation) was determined relative to the negative control using the following equation:
[formula] % Anti-Denaturation Activity=% Inhibition of Protein Denaturation=% Anti-inflammatory Activity

Chain of Bovine Serum Albumin (BSA) (P02769 25-607): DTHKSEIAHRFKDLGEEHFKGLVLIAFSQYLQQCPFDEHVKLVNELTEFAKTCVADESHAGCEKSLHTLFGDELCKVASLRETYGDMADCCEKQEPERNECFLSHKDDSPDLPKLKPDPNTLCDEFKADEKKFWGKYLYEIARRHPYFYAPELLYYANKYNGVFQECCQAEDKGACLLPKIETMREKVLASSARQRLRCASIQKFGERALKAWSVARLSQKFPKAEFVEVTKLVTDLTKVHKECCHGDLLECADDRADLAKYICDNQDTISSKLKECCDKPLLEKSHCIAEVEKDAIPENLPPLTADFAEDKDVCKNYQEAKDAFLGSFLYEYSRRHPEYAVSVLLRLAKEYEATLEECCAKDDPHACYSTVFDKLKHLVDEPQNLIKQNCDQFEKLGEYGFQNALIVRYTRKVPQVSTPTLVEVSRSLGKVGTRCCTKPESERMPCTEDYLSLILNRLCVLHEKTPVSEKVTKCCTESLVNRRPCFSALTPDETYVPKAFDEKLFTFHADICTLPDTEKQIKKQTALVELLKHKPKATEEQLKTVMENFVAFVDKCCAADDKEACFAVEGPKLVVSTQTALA

As to `O=C(O)c1cn(C2CC2)c2cc(N3CCN(Cn4nc(/N=C/c5ccc(Cl)cc5)sc4=S)CC3)c(F)cc2c1=O` [IV, 7-(4-((5-(4-chlorobenzylideneamino)-2-thioxo-1,3,4-thiadiazol-3(2H)-yl)methyl)piperazin-1-yl)-1-cyclopropyl-6-fluoro-4-oxo-1,4-dihydroquinoline-3-carboxylic acid], the melting point – broadly, the temperature of the solid-liquid transition – is 221 to 223 °C. Besides, the “in vitro anti-inflammatory activity (inhibition of protein denaturation)” value in series [1] is listed as “considerable anti-inflammatory effect”.
